Patent publication US20230054318A1, “PERSONALIZED TUMOR VACCINE AND USE THEREOF FOR CANCER IMMUNOTHERAPY” (priority 2019, published 2023)

Test: Human Equivalent Dose (HED) calculation based on body surface area
Conditions: for Animal NOAEL: mouse (~20 g)
Source text: Provided herein are methods for calculating HED of the MBTA components based on body surface area.
See details from: Nair A B, Jacob S. A simple practice guide for dose conversion between animals and human. J Basic Clin Pharma 2016; 7:27-31
A formula to calculate HED is shown as follows:
HED(mg/kg)=Animal dose(mg/kg)Animal Km/Human Km

Compound	NOAEL (mouse)	HED/Safety Factor (10)	Maximum Recommended Starting Dose (MRSD, assuming 60 kg adult)	HED (Mouse Km=3, Human Km=37)	Animal NOAEL
CCOCc1nc2c(N)nc3ccccc3c2n1CC(C)(C)O [R-848, Resiquimod, reference compound]	1.2 mg/kg				
Mannan		0.3851 mg/kg	23.11 mg/day	3.851 mg/kg	47.5 mg/kg
Lipoteichoic acid [LTA, reference compound]					1.2 mg/kg
